# From paper PMC3323469, “Comparative study of ^64Cu/NOTA-[D-Tyr^6,βAla^11,Thi^13,Nle^14]BBN(6-14) monomer and dimers for prostate cancer PET imaging” (EJNMMI Research, 2012)
# Numbered stars: 1 amine (or outer) side, 2 acyl side, 3 side chain; on linkers, the order of the positions; unused ones are H or OH. Bridge positions count the residues as written; N and C are the ends. Square brackets hold non-standard residues; d marks the D form. Peptide text beside a SMILES is read from it. I, II: the chains in the order shown. * marks the point of attachment. NOTA = O=C(O)CN1CCN(CC(=O)O)CCN(CC(=O)*)CC1; X1 = O=C(CCC(=O)[*:2])NCCOCCOCC(=O)[*:1]; 2Thi = N[C@@H](Cc1cccs1)C(=O)O; Nle = CCCC[C@H](N)C(=O)O; AEEA = NCCOCCOCC(=O)O; βAla = NCCC(=O)O
# How the values were obtained:
# [1] = target: T1, GRPR (Mus musculus, UniProt P21729); experiment: Biodistribution in Balb/c mice (in vivo GRPR-targeting efficacy); details: 64Cu-labeled peptide, 30 min p.i.
# T1 construct: using the pancreas, a GRPR-rich tissue, as a target for specific receptor-mediated accumulation; from tissue; host or cells: Female Balb/c mice, in vivo; organs (pancreas and others) collected 30 min p.i
# Method: To determine the in vivo GRPR-targeting efficacy of labeled peptides, biodistribution of female Balb/c mice were realized with a minimum of 4 mice for each condition. Briefly, mice were injected with 370 to 740 kBq (10 to 20 μCi; 100 μL) of either ^64Cu/NOTA-monomer, ^64Cu/NOTA-dimer 1 or ^64Cu/NOTA-dimer 2 via the caudal vein. The animals were sacrificed with CO2 at 30 min post-injection [p.i.]. Organs of interest were then collected, weighed and measured in a gamma counter. The results were expressed as percentage of the injected dose per gram of tissue [%ID/g].
# [2] = target: GRPR (Homo sapiens, UniProt P30550); experiment: Competitive binding assay with [125I-Tyr4]bombesin on PC3 cells; design: host or cells: PC3 cells (whole, adherent cells in 24-well plates); details: read-out: Ki (affinity for GRPR)
# Method: Competition assays were performed in 24-well plates using PC3 cells. The cells were cultured until near confluence, and the medium was replaced by 400 μL of reaction medium (RPMI complemented with 2 mg/mL BSA, 4.8 mg/mL HEPES, 1 U/mL penicillin G and 1 μg/mL streptomycin). For the assay, equal volumes of radioactive and non-radioactive ligands were added. […] The plates were incubated for 40 min at 37°C with agitation. After the incubation, the reaction medium was removed, and the cells were washed three times with PBS at room temperature. The cells were harvested and counted in a gamma counter (Cobra II auto-gamma counter, Packard, MN, USA). Experiments were realized three times in triplicate. Data were analyzed with GraphPad Prism 5 Software (GraphPad Software, San Diego, CA, USA) to determine the IC50. Finally, the Ki was determined using Cheng and Pursoff's formula [32].
# [3] = Solubility in physiological media; format: physicochemical; details: 64Cu-labeled peptide; DMF-PBS (10/90 v/v) used to solubilize
# Method: Our cyclotron facility provides ^64Cu isotope on a routine basis for research purposes using a target system developed in collaboration with Advanced Cyclotron Systems Inc. (ACSI, Richmond, British Columbia, Canada). ^64Cu was prepared on an EBCO TR-19 cyclotron (EBCO Technologies, Vancouver, Canada) by the ^64Ni(p, n)^64Cu nuclear reaction using an enriched ^64Ni target electroplated on a rhodium disk. [^64Cu]CuCl2 was recovered from the target following the procedure of McCarthy et al. and converted to [^64Cu]copper[II] acetate by dissolving the [^64Cu]CuCl2 in ammonium acetate (0.1 M; pH 5.5). Peptides were labeled with ^64Cu following conditions optimized in our laboratory. Briefly, peptides (5 μg) were dissolved in a 0.1 M ammonium acetate buffer at pH 5.5 with [^64Cu]Cu(OAc)2 (8 to 10 mCi, 296 to 370 MBq) in a total volume of 250 to 300 μL, and then, the resulting solution was incubated at 100°C for 10 min. The labeled product was purified by HPLC using a C-18 column and a radio-detector. The amount of radiolabeled peptide was determined by the peak area of the tracer in the UV-chromatogram compared to the UV peak area of the standard unlabelled peptide (Figure 3). […] The peptide fraction was collected, evaporated and counted in a Capintec radioisotope calibrator (Capintec, Inc., NJ, USA) to calculate the specific activity of the product.
# [4] = format: in vitro ADME; details: 24 h
# Method: Plasma and in vivo stability studies were realized as previously described by our group. Briefly, after peptide reconstitution, studies were carried out by incubating the tracers in mouse plasma for a period of 24 h and by injecting around 15 to 25 MBq (400 to 650 μCi; 100 μL) of ^64Cu/peptide to female Balb/c mice; 3 mice per peptide. After 24 h, a portion of the incubation mixtures in plasma or blood samples taken from the back paw were quenched with equal amounts of MeCN, chilled (4°C) and centrifuged, and the supernatant was assayed by HPLC. The stability was also determined by radio-TLC directly from plasma and blood samples without further handling; free ^64Cu and purified radiolabeled peptides were used as standards. The radio-TLCs were eluted on C-18-coated plastic sheets with 0.1 M sodium citrate buffer at pH 5.5 using an instant imager system for the radio-detection.
# [5] = in vivo; design: species or system Balb/c nude mice; details: Balb/c nude, mouse, total radioactivity
# Method: (§1) Tumor-bearing Balb/c nude mice were injected with 370 to 740 kBq (10 to 20 μCi; 100 μL) of ^64Cu/NOTA-monomer and ^64Cu/NOTA-dimer 2 via the caudal vein and sacrificed with CO2 at different periods of time after injection. Organs of interest were then collected and weighed. -Radioactivity was measured in a gamma counter. The blocking experiments were realized by co-injecting 0.1 μmol of non-radiolabeled peptide. The results were expressed as %ID/g with a minimum of 3 mice for each condition.
# [6] = test system: PC3 tumor; experiment: in vivo; design: species or system Balb/c nude mice; details: mouse
# Method: as §1
# T1 sequence (P21729 whole entry): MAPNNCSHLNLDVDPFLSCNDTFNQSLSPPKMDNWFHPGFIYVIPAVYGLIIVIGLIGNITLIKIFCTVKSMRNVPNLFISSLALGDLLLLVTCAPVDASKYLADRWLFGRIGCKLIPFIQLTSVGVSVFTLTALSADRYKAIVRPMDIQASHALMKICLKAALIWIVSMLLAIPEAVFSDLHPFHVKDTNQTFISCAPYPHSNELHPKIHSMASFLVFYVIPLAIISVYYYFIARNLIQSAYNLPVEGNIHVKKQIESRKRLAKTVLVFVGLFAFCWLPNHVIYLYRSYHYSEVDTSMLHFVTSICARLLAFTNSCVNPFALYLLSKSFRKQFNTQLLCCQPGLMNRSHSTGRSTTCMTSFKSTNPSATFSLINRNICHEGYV
# Chain of GRPR (Homo sapiens, UniProt P30550) (P30550 whole entry): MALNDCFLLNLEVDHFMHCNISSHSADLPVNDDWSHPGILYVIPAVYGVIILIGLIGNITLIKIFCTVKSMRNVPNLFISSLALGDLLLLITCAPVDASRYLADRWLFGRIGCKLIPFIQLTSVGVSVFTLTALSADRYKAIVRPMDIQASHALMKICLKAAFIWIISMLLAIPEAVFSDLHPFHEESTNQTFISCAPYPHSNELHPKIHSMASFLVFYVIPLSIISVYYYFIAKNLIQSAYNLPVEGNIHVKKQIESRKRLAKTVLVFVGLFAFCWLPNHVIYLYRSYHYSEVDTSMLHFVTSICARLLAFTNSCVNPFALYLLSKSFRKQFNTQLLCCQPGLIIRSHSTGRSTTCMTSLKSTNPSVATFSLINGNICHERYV
structure (smiles),measurement,setting,value
"CCCC[C@H](NC(=O)[C@H](Cc1cccs1)NC(=O)[C@H](Cc1c[nH]cn1)NC(=O)CCNC(=O)[C@@H](NC(=O)[C@H](C)NC(=O)[C@H](Cc1c[nH]c2ccccc12)NC(=O)[C@H](CCC(N)=O)NC(=O)[C@@H](Cc1ccc(O)cc1)NC(=O)CCC(=O)NCCOCCOCC(=O)N[C@@H](CCCCNC(=O)CN1CCN(CC(=O)O)CCN(CC(=O)O)CC1)C(=O)NCCOCCOCC(=O)NCC(=O)N[C@H](Cc1ccc(O)cc1)C(=O)N[C@@H](CCC(N)=O)C(=O)N[C@@H](Cc1c[nH]c2ccccc12)C(=O)N[C@@H](C)C(=O)N[C@H](C(=O)NCCC(=O)N[C@@H](Cc1c[nH]cn1)C(=O)N[C@@H](Cc1cccs1)C(=O)N[C@@H](CCCC)C(N)=O)C(C)C)C(C)C)C(N)=O [NOTA-dimer 2, BBN(6-14)-Suc-PEG-Lys(NOTA)-PEG-Gly-BBN(6-14)] (I: K(NOTA)[AEEA]G[dY]QWAV[βAla]H[2Thi][Nle]-NH2 / II: [dY]QWAV[βAla]H[2Thi][Nle]-NH2; linker I:N-II:N via X1)",Fold higher pancreas uptake than NOTA-monomer and NOTA-dimer 1,[1]; Balb/c mice,3.6 fold
same,Pancreas uptake,[1]; female Balb/c mice,57 ± 16 %ID/g
same,Ki,[2],1.76 ± 1.3 nM
same,Solubility in physiological media,[3],poorly soluble
"CCCC[C@H](NC(=O)[C@H](Cc1cccs1)NC(=O)[C@H](Cc1c[nH]cn1)NC(=O)CCNC(=O)[C@@H](NC(=O)[C@H](C)NC(=O)[C@H](Cc1c[nH]c2ccccc12)NC(=O)[C@H](CCC(N)=O)NC(=O)[C@@H](Cc1ccc(O)cc1)NC(=O)COCCOCCNC(=O)CN1CCN(CC(=O)O)CCN(CC(=O)O)CC1)C(C)C)C(N)=O [^64Cu/NOTA-monomer, metal not drawn] ({NOTA-AEEA}-[dY]QWAV[βAla]H[2Thi][Nle]-NH2)",Stability in mouse plasma,[4],stable
same,tissue to tissue ratio at 0.5 h,"[5]; iv, Tumor/blood ratio",1.49 ± 0.41
same,tissue uptake at 0.5 h,[5]; Biodistribution Liver,5.38 ± 8.12 %ID/g
same,tissue uptake at 0.5 h,[5]; Biodistribution Pancreas,5.1 ± 2.5 %ID/g
same,Biodistribution Adrenal,"[6]; Balb/c nude, 0.5 h",4.29 ± 1.13 %ID/g
same,Biodistribution Blood,"[6]; Balb/c nude, 0.5 h",1.35 ± 0.47 %ID/g
same,Biodistribution Bone,"[6]; Balb/c nude, 0.5 h",0.43 ± 0.46 %ID/g
same,Biodistribution Brain,"[6]; Balb/c nude, 0.5 h",0.08 ± 0.07 %ID/g
same,Biodistribution Fat,"[6]; Balb/c nude, 0.5 h",0.65 ± 0.54 %ID/g
same,Biodistribution Heart,"[6]; Balb/c nude, 0.5 h",1.05 ± 0.91 %ID/g
same,Biodistribution Kidney,"[6]; Balb/c nude, 0.5 h",10.42 ± 1.29 %ID/g
same,Biodistribution Lungs,"[6]; Balb/c nude, 0.5 h",1.77 ± 1.28 %ID/g
same,Biodistribution Muscle,"[6]; Balb/c nude, 0.5 h",0.40 ± 0.33 %ID/g
same,Biodistribution Plasma,"[6]; Balb/c nude, 0.5 h",2.48 ± 0.63 %ID/g
same,Biodistribution Spleen,"[6]; Balb/c nude, 0.5 h",1.63 ± 1.82 %ID/g
same,Biodistribution Tumor,"[6]; Balb/c nude, 0.5 h",1.79 ± 0.46 %ID/g
same,Tumor/kidney ratio,"[6]; Balb/c nude, iv, 0.5 h",0.17 ± 0.04
same,Tumor/liver ratio,"[6]; Balb/c nude, iv, 0.5 h",2.07 ± 1.13
same,Tumor/muscle ratio,"[6]; Balb/c nude, iv, 0.5 h",7.42 ± 3.17
same,Tumor/pancreas ratio,"[6]; Balb/c nude, iv, 0.5 h",0.44 ± 0.17
same,Tumor/muscle ratio,[6],7.42 ± 0.41
